How the values were obtained:
human P2X7 = target: T1, human P2X7 (Homo sapiens, UniProt Q99572); experiment: Intracellular Calcium Flux (FLIPR) Assay; type: cell-based; conditions: 1321N1 cells stably expressing full length human P2X7; agonist 100 μM BzATP; fluo-3 calcium flux; read-out: FLIPR pIC50 hP2X7-1321n1 (converted)
T1 construct: 1321N1 cells stably expressing the full length human P2X7 gene (1321N1-hP2X7)
T1 sequence (Q99572 1-595): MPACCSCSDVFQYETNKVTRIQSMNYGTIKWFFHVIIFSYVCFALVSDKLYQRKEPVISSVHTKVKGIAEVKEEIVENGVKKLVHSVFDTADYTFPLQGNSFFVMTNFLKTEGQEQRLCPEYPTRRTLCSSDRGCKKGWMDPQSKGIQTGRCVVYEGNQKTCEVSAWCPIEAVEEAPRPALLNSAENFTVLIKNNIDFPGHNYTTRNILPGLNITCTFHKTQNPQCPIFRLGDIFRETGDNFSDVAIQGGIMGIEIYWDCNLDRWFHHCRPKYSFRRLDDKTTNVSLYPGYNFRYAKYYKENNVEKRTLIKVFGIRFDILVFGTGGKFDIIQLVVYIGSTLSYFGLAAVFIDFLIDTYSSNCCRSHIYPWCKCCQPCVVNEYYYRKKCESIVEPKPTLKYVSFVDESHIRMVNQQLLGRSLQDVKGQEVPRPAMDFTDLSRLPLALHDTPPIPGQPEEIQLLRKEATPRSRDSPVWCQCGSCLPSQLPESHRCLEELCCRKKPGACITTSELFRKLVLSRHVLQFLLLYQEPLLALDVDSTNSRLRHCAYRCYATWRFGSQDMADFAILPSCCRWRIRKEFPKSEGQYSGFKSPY
Description: Stock solutions of compounds were prepared from powders as a 10 mM DMSO stock solution. These solutions were stored at RT during the two week period of these experiments to prevent freeze-thaw of the DMSO stocks. The DMSO stocks were added to the appropriate assay buffer at a concentration of 10 μM, and then diluted serially to the final concentrations that were tested. No observable precipitate was formed at any time during this process. The aqueous solutions of compounds as well as ATP (Sigma A7699) and BzATP (Sigma B6396) were prepared fresh for each day of experiment.
1321N1 cells stably expressing the full length human P2X7 gene (1321N1-hP2X7) and HEK293 cells stably expressing the full length rat P2X7 gene (HEK293-rP2X7) were obtained from the Roche Cell Culture Facility. 1321N1-hP2X7 cells were grown in Dulbecco's Modified Eagle's Medium (DMEM) high glucose supplemented with 10% FBS and 250 μg/mL G418. HEK293-rP2X7 cells were grown in DMEM/F-12 supplemented with 10% FBS, 1 mM CaCl2, 2 mM MgCl2, 2 mM L-Glutamine and 500 μg/ml G418. Cells were split such that they never became >70% confluent.
On the day prior to the experiment, 1321N1-hP2X7 or HEK293-rP2X7 cells were released into suspension with calcium-free PBS+Versene and washed by centrifugation with calcium-free PBS to remove the Versene. Cells were resuspended in growth medium at a density of 2.5×10^5 cells/mL and seeded into black walled, clear bottom 96 well plates (50,000 cells/well) approximately 18 hr prior to intracellular calcium flux experiments.
On the day of the experiment, plates were washed with FLIPR buffer (calcium- and magnesium-free Hank's Balanced Salt Solution (HBSS) supplemented with 10 mM Hepes, 2.5 mM probenecid and 2 mM calcium chloride) using a BIO-TEK 96 channel plate washer and incubated with […] fluo-3 dye at 37° C. for one hr. The dye was then removed by plate washing and the cells were allowed to equilibrate for 20 min at room temperature with antagonist or vehicle (FLIPR buffer). Agonist (100 μM BzATP final concentration for hP2X7; 5 μM BzATP final concentration or rP2X7) was added online with the FLIPR and fluorescence measurements made at 1 sec intervals for 60 sec followed by 3 sec intervals for a further 4 min (5 min total). A final addition of 5 μM ionomycin was made and the maximal BzATP-evoked fluorescence normalized to the maximal ionomycin-evoked fluorescence.

IC50 (human P2X7) [µM] | melting point [°C] | SMILES
0.229 | 101.9 to 105.9 | COc1ccc(CC(C(=O)Nc2nc3ccccc3o2)c2ccc(S(C)(=O)=O)cc2)cc1 (stereo not drawn) [Compound I-9, N-Benzooxazol-2-yl-2-(4-methanesulfonyl-phenyl)-3-(4-methoxy-phenyl)-propionamide]
0.0813 | 118 to 119 | CS(=O)(=O)c1ccc(C(Cc2ccccc2)C(=O)Nc2nc3ccccc3o2)cc1 (stereo not drawn) [Compound I-4, N-Benzooxazol-2-yl-2-(4-methanesulfonyl-phenyl)-3-phenyl-propionamide]
0.537 | 107 to 108 | CS(=O)(=O)c1ccc(C(Cc2ccccc2Cl)C(=O)Nc2nc3ccccc3o2)cc1 (stereo not drawn) [Compound I-5, N-Benzooxazol-2-yl-3-(2-chloro-phenyl)-2-(4-methanesulfonyl-phenyl)-propionamide]
0.339 | 82.8 to 98.7 | CS(=O)(=O)c1ccc(C(Cc2cccc(F)c2)C(=O)Nc2cnc(CO)cn2)cc1 (stereo not drawn) [Compound I-26, 3-(3-Fluoro-phenyl)-N-(5-hydroxymethyl-pyrazin-2-yl)-2-(4-methanesulfonyl-phenyl)-propionamide]
0.389 | 193.5 to 194.8 | Cc1ccccc1CC(C(=O)Nc1cnc(Br)cn1)c1ccc(S(C)(=O)=O)cc1 (stereo not drawn) [Compound I-1, N-(5-Bromo-pyrazin-2-yl)-2-(4-methanesulfonyl-phenyl)-3-o-tolyl-propionamide]
0.389 | 149 to 151 | CN(C)CCNC(=O)c1ccc(C(Cc2ccc(F)cc2)C(=O)Nc2nc3ccccc3o2)cc1 (stereo not drawn) [Compound I-34, 4-[1-(Benzooxazol-2-ylcarbamoyl)-2-(4-fluoro-phenyl)-ethyl]-N-(2-dimethylamino-ethyl)-benzamide]
0.347 | 134 to 136 | O=C(NCCO)c1ccc(C(Cc2ccc(F)cc2)C(=O)Nc2nc3ccccc3o2)cc1 (stereo not drawn) [Compound I-33, 4-[1-(Benzooxazol-2-ylcarbamoyl)-2-(4-fluoro-phenyl)-ethyl]-N-(2-hydroxy-ethyl)-benzamide]
1.17 | 184 to 185 | Cc1ccccc1CC(C(=O)Nc1nc2cc(Cl)ccc2o1)c1ccc(S(C)(=O)=O)cc1 (stereo not drawn) [Compound I-3, N-(5-Chloro-benzooxazol-2-yl)-2-(4-methanesulfonyl-phenyl)-3-o-tolyl-propionamide]
0.224 | 106 to 107 | CCOC(=O)c1cnc(NC(=O)C(Cc2ccc(F)cc2)c2ccc(S(C)(=O)=O)cc2)cn1 (stereo not drawn) [Compound I-15, 5-[3-(4-Fluoro-phenyl)-2-(4-methanesulfonyl-phenyl)-propionylamino]-pyrazine-2-carboxylic acid ethyl ester]
0.17 |  | CS(=O)(=O)c1ccc(C(Cc2ccc(F)cc2)C(=O)Nc2nc3cc(S(=O)(=O)N4CCCC4)ccc3o2)cc1 (stereo not drawn) [Compound I-47, 3-(4-Fluoro-phenyl)-2-(4-methanesulfonyl-phenyl)-N-[5-(pyrrolidine-1-sulfonyl)-benzooxazol-2-yl]-propionamide]
0.0661 |  | CS(=O)(=O)c1ccc(C(Cc2ccc(F)cc2)C(=O)Nc2nc3ccncc3o2)cc1 (stereo not drawn) [Compound I-52, 3-(4-Fluoro-phenyl)-2-(4-methanesulfonyl-phenyl)-N-oxazolo[5,4-c]pyridin-2-yl-propionamide]
0.708 | 172.4 to 175.3 | Cc1cnc(NC(=O)C(Cc2ccc(F)cc2)c2ccc(S(C)(=O)=O)cc2)cn1 (stereo not drawn) [Compound I-19, 3-(4-Fluoro-phenyl)-2-(4-methanesulfonyl-phenyl)-N-(5-methyl-pyrazin-2-yl)-propionamide]
0.871 |  | CC(=O)OCc1cnc(NC(=O)C(Cc2ccc(F)cc2)c2ccc(S(C)(=O)=O)cc2)cn1 (stereo not drawn) [Compound I-49, Acetic acid 5-[3-(4-fluoro-phenyl)-2-(4-methanesulfonyl-phenyl)-propionylamino]-pyrazin-2-ylmethyl ester]
0.0309 |  | O=C(Nc1nc2ccccc2o1)C(Cc1ccc(F)cc1)c1ccncc1 (stereo not drawn) [Compound I-54, N-Benzooxazol-2-yl-3-(4-fluoro-phenyl)-2-pyridin-4-yl-propionamide]
0.617 |  | COC(=O)c1ccc2nc(NC(=O)C(Cc3ccc(F)cc3)c3ccc(S(C)(=O)=O)cc3)oc2c1 (stereo not drawn) [Compound I-45, 2-[3-(4-Fluoro-phenyl)-2-(4-methanesulfonyl-phenyl)-propionylamino]-benzooxazole-6-carboxylic acid methyl ester]
0.38 |  | CS(=O)(=O)c1ccc([C@@H](Cc2ccc(F)cc2)C(=O)Nc2cnc(CO)cn2)cc1 [Compound I-50a, (R)-3-(4-Fluoro-phenyl)-N-(5-hydroxymethyl-pyrazin-2-yl)-2-(4-methanesulfonyl-phenyl)-propionamide]
1.05 |  | CN(Cc1ccccc1)Cc1cnc(NC(=O)C(Cc2ccc(F)cc2)c2ccc(S(C)(=O)=O)cc2)cn1 (stereo not drawn) [Compound I-24, N-{5-[(Benzyl-methyl-amino)-methyl]-pyrazin-2-yl}-3-(4-fluoro-phenyl)-2-(4-methanesulfonyl-phenyl)-propionamide]
0.646 |  | COCCN(C)Cc1cnc(NC(=O)C(Cc2ccc(F)cc2)c2ccc(S(C)(=O)=O)cc2)cn1 (stereo not drawn) [Compound I-23, 3-(4-Fluoro-phenyl)-2-(4-methanesulfonyl-phenyl)-N-(5-{[(2-methoxy-ethyl)-methyl-amino]-methyl}-pyrazin-2-yl)-propionamide]
0.427 |  | Cc1ccccc1C[C@H](C(=O)Nc1nc2ccccc2o1)c1ccc(S(C)(=O)=O)cc1 [Compound I-10, (S)—N-Benzooxazol-2-yl-2-(4-methanesulfonyl-phenyl)-3-o-tolyl-propionamide]
0.316 |  | CS(=O)(=O)c1ccc(C(Cc2ccc(F)cc2)C(=O)Nc2nc3ccc(Cl)cc3o2)cc1 (stereo not drawn) [Compound I-38, N-(6-Chloro-benzooxazol-2-yl)-3-(4-fluoro-phenyl)-2-(4-methanesulfonyl-phenyl)-propionamide]
0.191 |  | Cc1ccc2nc(NC(=O)C(Cc3ccc(F)cc3)c3ccc(S(C)(=O)=O)cc3)oc2c1 (stereo not drawn) [Compound I-36, 3-(4-Fluoro-phenyl)-2-(4-methanesulfonyl-phenyl)-N-(6-methyl-benzooxazol-2-yl)-propionamide]
0.295 |  | CS(=O)(=O)c1ccc(C(Cc2ccc(F)cc2)C(=O)Nc2ncc(-c3ccccc3)o2)cc1 (stereo not drawn) [Compound I-48, 3-(4-Fluoro-phenyl)-2-(4-methanesulfonyl-phenyl)-N-(5-phenyl-oxazol-2-yl)-propionamide]
0.437 |  | O=C(Nc1nc2ccccc2o1)C(Cc1ccc(F)cc1)c1ccc(F)cc1 (stereo not drawn) [Compound I-28, N-Benzooxazol-2-yl-2,3-bis-(4-fluoro-phenyl)-propionamide]
0.0813 |  | Cc1ccccc1C[C@@H](C(=O)Nc1nc2ccccc2o1)c1ccc(S(C)(=O)=O)cc1 [Compound I-11, (R)—N-Benzooxazol-2-yl-2-(4-methanesulfonyl-phenyl)-3-o-tolyl-propionamide]
0.126 |  | CS(=O)(=O)c1ccc(C(Cc2ccc(F)cc2)C(=O)Nc2nc3cc(Cl)ccc3o2)cc1 (stereo not drawn) [Compound I-39, N-(5-Chloro-benzooxazol-2-yl)-3-(4-fluoro-phenyl)-2-(4-methanesulfonyl-phenyl)-propionamide]
0.0447 |  | CS(=O)(=O)c1ccc(C(Cc2ccc(F)cc2)C(=O)Nc2nc3cc(F)ccc3o2)cc1 (stereo not drawn) [Compound I-46, N-(5-Fluoro-benzooxazol-2-yl)-3-(4-fluoro-phenyl)-2-(4-methanesulfonyl-phenyl)-propionamide]
